From patent US7893299B2, “Interleukin-1 and tumor necrosis factor-αmodulators; syntheses of such modulators and methods of using such modulators” (Nereus Pharmaceuticals, Inc., priority 2005, dated 2011)
“Also recorded” adds a separate entry of the source. Like-named read-outs stand apart in the source and are kept apart here.

Columns and labels:
HPBMC = HPBMC cell viability, Resazurin; type: cell-based, Human; settings: for EC50: HPBMC, 24 hr drug exposure, read-out: EC50 Inhibition of cell growth
Procedure: Eighty μl of 3.1×10^5/ml Human Peripheral Blood Mononuclear cells (HPBMC) were seeded in Costar 3904 96-well plate in LGM-3 medium and cultured for 12 hr at 37° C., 5% CO2 and 95% humidified air. 10 μl of 8-point half-log serial dilutions of LT-1-85, CC-3-19, CC-3-13P, formula (IIB-A1) and CC-3-22 prepared in LGM-3 medium was added to the cells and incubated for 1 hr. Subsequently, 10 μl of 500 ng/ml lipopolysaccharide (LPS) diluted in LGM-3 medium from 1 mg/ml stock solution was added to the cells and incubation proceeded for another 4 hr at 37° C., 5% CO2 and 95% humidified air. SB203580, a known p38 MAP kinase inhibitor and DMSO were used as positive and negative controls, respectively. After 4 hr stimulation with LPS, the level of TNF-α from each sample was analyzed by using the human TNF-α cytoset ELISA kit. EC50 values (the drug concentration at which 50% of the maximal observed TNF-α production is inhibited) were determined using a standard sigmoidal dose response curve fitting algorithm (Prism 2.0, GraphPad Software Inc). A duplicate set of cell plates were assayed for cell viability using the Resazurin dye after the cells were incubated with test compounds for 24 hr. The fluorescence of the reduction product of Resazurin was measured using a Fusion microplate fluorometer (Packard Bioscience) with λex=535 nm and λem=590 nm filters. EC50 values (the drug concentration at which 50% of the maximal observed growth inhibition is established) were determined using a standard sigmoidal dose response curve fitting algorithm (Prism 2.0, GraphPad Software Inc).

IL-10 production = assay: LPS-stimulated IL-10 levels in RPMI 8226 cells (ELISA); type: cell-based, human; settings: 20 μM to 0.16 μM
Procedure: Ninety μl of 2.8×10^5/ml and 0.5 ml of 5×10^5/ml RMPI 8226 cells (#CCL-155C, American Type Culture Collection) were seeded in 96-well and 6-well plate in LGM-3 medium, respectively. Cells were cultured overnight at 37° C., 5% CO2 and 95% humidified air. 8-point serial dilution of TTL3 or formula (IIB-A1) was added to cells for 1 hr at the final concentration ranging from 20 μM to 0.16 μM. DMSO was used as control. After 1 hr, 50 ng/ml of LPS diluted in LGM-3 medium from 1 mg/ml stock solution was added to stimulate the cells for additional 10 hr. Supernatants were collected and IL-8 and IL-10 levels were analyzed by using the human IL-8 and IL-10 cytoset ELISA kits.

PC-3 cells = assay: cell growth inhibition, PC-3, Resazurin, 1% FBS; type: cell-based, Human; settings: 48 hr of drug exposure
Procedure: Human prostate adenocarcinoma (PC-3; CRL-1435), multiple myeloma (RPMI 8226; CCL-155) and embryonic kidney (HEK-293; CRL-1573) cells were all purchased from ATCC and maintained in appropriate culture media. The cells were cultured in an incubator at 37° C. in 5% CO2 and 95% humidified air.
For cell growth inhibition assays, PC-3 and HEK-293 cells were seeded at 5×10^3 and 1.5×10^3 cells/well respectively in 90 μl media containing 1% (v/v) FBS into 96 well (Corning; 3904) black-walled, clear-bottom tissue culture plates and the plates were incubated overnight to allow cells to establish and enter log phase growth. RPMI 8226 cells were seeded at 2×10^4 cells/well respectively in 90 μl media containing 1% (v/v) FBS into 96 well plates on the day of the assay. 4 mg/ml stock solutions of the compounds were prepared in 100% DMSO and stored at −20° C. The compounds were serially diluted and added in triplicate to the test wells. LT-1-85 was tested at concentrations ranging from 27 μM to 8.6 nM. Concentrations ranging from 30 μM to 9.7 nM were tested for CC-3-13P. Formula (IIB-A1) was tested at concentrations ranging from 26 μM to 8.4 nM. The plates were returned to the incubator for 48 hours. The final concentration of DMSO was 0.25% in all samples.
Following 48 hours of drug exposure, 10 μl of 0.2 mg/ml Resazurin in Mg2+, Ca2+ free phosphate buffered saline was added to each well and the plates were returned to the incubator for 3-6 hours. Since living cells metabolize Resazurin, the fluorescence of the reduction product of Resazurin was measured using a Fusion microplate fluorometer (Packard Bioscience) with λex=535 nm and λem=590 nm filters. Resazurin dye in medium without cells was used to determine the background, which was subtracted from the data for all experimental wells. […] Where the maximum inhibition of cell growth was less than 50%, an EC50 value was not determined. The data in Table 25 summarize the growth inhibitory effects of LT-1-85, CC-3-13P and formula (IIB-A1) against HEK-293, PC-3 and RPMI 8226 cells. The EC50 values indicate that LT-1-85 and CC-3-13P are cytotoxic against HEK-293, PC-3 and RPMI 8226 cells. Formula (IIB-A1) is cytotoxic against RPMI 8226 cells.

NIK = NIK (Homo sapiens, UniProt Q99558); type: biochemical; settings: for inhibition of the NIK kinase activity: transfected cells stimulated with LPS/IFNγ in the presence of compound
Chain of NIK (Q99558 whole entry): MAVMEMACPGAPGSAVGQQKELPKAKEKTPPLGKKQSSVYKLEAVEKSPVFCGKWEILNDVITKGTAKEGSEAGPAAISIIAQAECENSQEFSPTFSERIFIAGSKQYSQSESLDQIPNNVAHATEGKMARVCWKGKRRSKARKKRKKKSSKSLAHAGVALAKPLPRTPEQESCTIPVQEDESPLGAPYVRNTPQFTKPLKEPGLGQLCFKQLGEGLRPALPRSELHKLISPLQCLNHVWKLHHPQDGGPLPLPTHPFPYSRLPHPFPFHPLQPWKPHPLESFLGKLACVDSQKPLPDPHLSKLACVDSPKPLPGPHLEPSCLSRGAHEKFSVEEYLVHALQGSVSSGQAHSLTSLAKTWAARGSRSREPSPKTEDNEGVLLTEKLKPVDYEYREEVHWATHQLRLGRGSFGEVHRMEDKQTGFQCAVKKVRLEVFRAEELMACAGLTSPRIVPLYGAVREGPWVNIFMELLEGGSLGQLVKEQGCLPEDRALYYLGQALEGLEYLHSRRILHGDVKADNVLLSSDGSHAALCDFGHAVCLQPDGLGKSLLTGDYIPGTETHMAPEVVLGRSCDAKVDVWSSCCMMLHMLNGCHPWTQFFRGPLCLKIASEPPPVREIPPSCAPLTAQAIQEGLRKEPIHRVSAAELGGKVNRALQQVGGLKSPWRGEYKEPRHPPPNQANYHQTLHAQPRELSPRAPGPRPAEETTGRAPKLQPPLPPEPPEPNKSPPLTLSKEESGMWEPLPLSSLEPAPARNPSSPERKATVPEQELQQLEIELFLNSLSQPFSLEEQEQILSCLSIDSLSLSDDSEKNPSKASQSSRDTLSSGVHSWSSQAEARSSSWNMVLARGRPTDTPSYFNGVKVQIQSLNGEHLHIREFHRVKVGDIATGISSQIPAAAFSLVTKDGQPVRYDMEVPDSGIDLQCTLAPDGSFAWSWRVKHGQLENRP
Procedure: The tubes were gently vortexed for 15 s and centrifuged at 8000×g for 15 min. The supernatant (1 ml) was pre-cleared, and NIK was immunoprecipitated with 1 μg of anti-myc Ab. After extensive washing of the immunoprecipitate with buffer A, the pellet was resuspended in kinase buffer (modified buffer A containing 0.1 mM EDTA, 5 mM MgCl2 and 10 nM okadaic acid). Kinase activity was assayed in 100 μl of kinase buffer containing 100 ng of immunoprecipitate, 50 μM [γ-^32P]ATP (0.5 μCi) and 100 ng of MBP as substrate.

TPA-induced ear edema = assay: TPA-induced mouse ear edema model; type: in vivo; settings: 500 ng per ear topically with TPA, 4 h
Procedure: 2.5 μg of TPA dissolved in 20 μl of DMSO, was applied to both surfaces of the right ear of each mouse. The left ear (control) received the vehicle (DMSO). Tested compounds were administered topically (500 ng per ear in 20 μl of DMSO) simultaneously with TPA application. The reference drug, indomethacin, was administered at the same doses. After 4 h, the animals were killed by cervical dislocation and a 6 mm diameter disc from each ear was removed with a metal punch and weighed. Ear edema was calculated by subtracting the weight of the left ear (vehicle) from the right ear (treatment). Ear sections were homogenized in 750 μl of saline. After centrifugation at 10000×g for 15 min at 4° C., myeloperoxidase (MPO) activity was measured in supernatants.

## C=C[C@@]1(C)CCC=C2[C@H]1CC[C@@H]1[C@](C)(C(=O)NC3CCCCC3)CCC[C@@]21C [Formula (IIB-A1), N-Cyclohexylamide Derivative of TTL]
HPBMC; Homo sapiens, 24 h
  EC50: > 26 µM
HPBMC; concentrations up to 26 μM
  cell growth of HPBMC (in words): did not inhibit
IL-10 production
  LPS-induced IL-10 production: reduces LPS-induced IL-8 and IL-10 production in a dose-dependent manner
IL-10 production; listed as formula (IIB-A1)
  LPS-induced IL-10 production: inhibits the LPS-induced IL-8 and IL-10 production
PC-3 cells; Homo sapiens, PC-3, 48 h
  EC50: > 26 µM
NIK
  inhibition of the NIK kinase activity: 70%
TPA-induced ear edema
  ear edema: inhibit TPA-induced ear edema
  myeloperoxidase activity: significantly attenuated
TPA-induced ear edema; listed as formula (IIB-A1)
  ear edema: significantly reduced

## C=C[C@@]1(C)CCC=C2[C@H]1CC[C@@H]1[C@](C)(C(=O)N3CCOCC3)CCC[C@@]21C [LT-1-85]
HPBMC
  EC50: 3.6 µM
HPBMC; Homo sapiens, 24 h
  EC50: 3.8 µM
PC-3 cells
  EC50: 19 µM
PC-3 cells; Homo sapiens, PC-3, 48 h
  EC50: 22 µM

## C=C[C@@]1(C)CCC=C2[C@H]1CC[C@@H]1[C@](C)(C(=O)OC)CCC[C@@]21C [TTL3]
IL-10 production
  LPS-induced IL-10 production: inhibits the IL-10 production in a dose-dependent manner
NIK; 1 μM directly added to the in vitro NIK kinase assay
  inhibition of the kinase activity of NIK: 48%
NIK
  inhibition of the NIK kinase activity: 70%
TPA-induced ear edema
  ear edema: significantly reduced; also recorded: inhibit TPA-induced ear edema
  myeloperoxidase activity: significantly attenuated
